Results from patent US9877999B2, “Methods for treating metastatic stage prostate cancer” (Ferring International SA, priority 2008, dated 2018).
Square brackets hold non-standard residues; d marks the D form. Peptide text beside a SMILES is read from it. * marks the point of attachment. dPhe(4-NHCONH2) = NC(=O)Nc1ccc(C[C@@H](N)C(=O)O)cc1; Dihydroorotyl(S) = O=C1C[C@@H](C(=O)*)NC(=O)N1; dPhe(4-Cl) = N[C@H](Cc1ccc(Cl)cc1)C(=O)O; Phe(4-NH2) = Nc1ccc(C[C@H](N)C(=O)O)cc1; d2Nal = N[C@H](Cc1ccc2ccccc2c1)C(=O)O; Lys(iPr) = CC(C)NCCCC[C@H](N)C(=O)O; d3Pal = N[C@H](Cc1cccnc1)C(=O)O

Tests used:
clinical [1] = assay: clinical; set-up: species or system human; conditions: in vivo
Text: Plasma protein binding is estimated to be approximately 90%.

clinical [2] = conditions: male, human, in vivo, sc, 240 mg

Which “fraction excreted via the hepato-biliary system” value (clinical [1]) does the source give for CC(=O)N[C@H](Cc1ccc2ccccc2c1)C(=O)N[C@H](Cc1ccc(Cl)cc1)C(=O)N[C@H](Cc1cccnc1)C(=O)N[C@@H](CO)C(=O)N[C@@H](Cc1ccc(NC(=O)[C@@H]2CC(=O)NC(=O)N2)cc1)C(=O)N[C@H](Cc1ccc(NC(N)=O)cc1)C(=O)N[C@@H](CC(C)C)C(=O)N[C@@H](CCCCNC(C)C)C(=O)N1CCC[C@H]1C(=O)N[C@H](C)C(N)=O [degarelix, D-Alaninamide, N-acetyl-3-(2-naphthalenyl)-D-alanyl-4-chloro-D-phenylalanyl-3-(3-pyridinyl)-D-alanyl-L-seryl-4-[[[(4S)-hexahydro-2,6-dioxo-4-pyrimidinyl]carbonyl]amino]-L phenylalanyl-4-[(aminocarbonyl)amino]-D-phenylalanyl-L leucyl-N6-(1-methylethyl)-L-lysyl-L-prolyl] (Ac-[d2Nal][dPhe(4-Cl)][d3Pal]S[Phe(4-NH2)](Dihydroorotyl(S))[dPhe(4-NHCONH2)]L[Lys(iPr)]P[dA]-NH2) here?
The value was “approximately 80%”.

What about the Vd (clinical [1]; male, human) of the same compound?
Its Vd is about 1 L/kg.

What about the clearance (clinical [1]; male, human) of the same compound?
The clearance was 0.583 to 0.833 mL/min/kg.

What about the dose excreted (clinical [1]; male, human) of the same compound?
Its dose excreted is about 20%.

And the Cmax (clinical [2])?
Its Cmax is 53.4 ng/mL.

And the Tmax (clinical [2])?
The Tmax was 1.4 days.

What about the half-life (clinical [2]; T½) of the same compound?
The half-life was 43 days.

What about the half-life (clinical [2]; median terminal half-life) of the same compound?
The half-life was about 43 days.
